The values below come from patent publication US9783490B2, “Antimicrobial compounds, their synthesis and applications thereof” (The Secretary of State for Health, priority 2012, dated 2017).

Where two headings read alike, the source gives them in different places.

One data set concerns E. coli (MTCC 443). As to the kind of experiment: Minimum Inhibitory Concentration, micro-dilution broth. The format is cell-based, Escherichia coli. The conditions noted are these: for Minimum Inhibitory Concentration E. coli: Drug sensitive bacteria. The protocol: (§1) Microorganisms and Culture Conditions: Bacterial strains, S. aureus (MTCC 737) and E. coli (MTCC 443) are purchased from MTCC (Chandigarh, India). MRSA (ATCC 33591), Pseudomonas aeruginosa (ATCC 4676), […]-lactamase producing and drug-resistant Klebsiella pneumonia (ATCC700603), Enterococcus faecium (ATCC 19634) and vancomycin resistant Enterococcus faecium (ATCC 51559) are obtained from ATCC (Rockville, Md., USA).
(§2) E. coli is cultured in Luria Bertani broth (10 g of tryptone, 5 g of yeast extract, and 10 g of NaCl in 1000 mL of sterile distilled water (pH −7) while S. aureus, Pseudomonas aeruginosa (ATCC 4676) and MRSA are grown in Yeast-dextrose broth (1 g of beef extract, 2 g of yeast extract, 5 g of peptone and 5 g of NaCl in 1000 mL of sterile distilled water). For all Enterococcus faecium, Brain Heart Infusion broth (BHI) is used. For solid media 5% agar was used along with above mentioned composition. K. pneumonia was grown in nutrient media (3 g of beef extract and 5 g of peptone in 1000 mL of sterile distilled water). The bacterial samples were freeze dried and stored at −80° C. 5 μl of these stocks were added to 3 mL of the nutrient broth and the culture was grown for 6 h at 37° C. prior to the experiments.
(§3) Antibacterial activity is reported as Minimum Inhibitory Concentration (MIC), i.e. the lowest concentration of the antimicrobial agent that will inhibit the growth of a microorganism after overnight incubation. Water-soluble ACK, NCK and BCK series of compounds are assayed in a modified micro-dilution broth format. Stock solutions are made by serially diluting the compounds using autoclaved Millipore water. Bacteria, to be tested are grown for about 6 hrs in the suitable media containing ˜10^9 cfu/mL (determined through dilution plate technique by spread plate method), which is then diluted to 10^5 cfu/mL using nutrient media. 50 μL of serially diluted compound is added to a 96 well plate containing 150 μL bacterial solutions. Two controls are made; one containing 150 μL of media and 50 μL of compound and the other containing 200 μL of bacterial solution. […] MIC value is determined by taking the average of triplicate O.D. values for each concentration and plotting it against concentration using Origin Pro 8.0 software. The data is then subjected to sigmoidal fitting. From the curve, MIC value is determined, as the point in the curve where the O.D. is similar to that of control having no bacteria. The MIC values and errors of independent experiments are reported as average and standard deviation of triplicates.

The test system of another data set is S. aureus (MTCC 737). The description is as above. To be noted: for Minimum Inhibitory Concentration S. aureus: Drug sensitive bacteria. It is filed as cell-based, Staphylococcus aureus. The protocol:
as §1, §2, §3

For data set [1], the system named is vancomycin resistant Enterococcus faecium (ATCC 51559). The data set is described as above. The conditions noted are these: for Minimum Inhibitory Concentration VRE: Drug resistant bacteria. It is filed as cell-based. The protocol: as §1, §2, §3
In data set [2] the test system is Pseudomonas aeruginosa (ATCC 4676). The description is as above. To be noted: for Minimum Inhibitory Concentration P. aeruginosa: Drug sensitive bacteria. The format is cell-based. The protocol: as §1, §2, §3
Data set [3] deals with drug-resistant Klebsiella pneumonia (ATCC700603). The description is as above. It is filed as cell-based. To be noted: for Minimum Inhibitory Concentration K. pneumonia: Drug resistant bacteria. The protocol: as §1, §2, §3
The test system of data set [4] is Enterococcus faecium (ATCC 19634). Described as above. It is filed as cell-based. The conditions noted are these: for Minimum Inhibitory Concentration E. faecium: Drug sensitive bacteria. The protocol:
as §1, §2, §3

The next data set relates to MRSA (ATCC 33591). The description is as above. The format is cell-based, Methicillin resistant S. aureus. To be noted: for Minimum Inhibitory Concentration MRSA: Drug resistant bacteria. The protocol: as §1, §2, §3
A further data set deals with human RBCs. The data set is described as follows: Haemolytic activity (HC50). The format is cell-based. The protocol:
Erythrocytes are isolated from freshly drawn, heparinized human blood and re-suspended to 5 vol % in PBS (pH 7.4). In a 96-well microtiter plate, 150 μl of erythrocyte suspension is added to 50 μl of serially diluted compound. Two controls are made, one without compound and other with 50 μl of 1 vol % solution of Triton X-100. The plate is incubated for about 1 hr at a temperature of about 37° C. The plate is then centrifuged at 3,500 rpm for about 5 min, 100 μl of the supernatant from each well is transferred to a fresh microtiter plate, and absorbance at 540 nm is measured. Percentage of hemolysis is determined as (A−A0)/(Atotal−A0)×100, where A is the absorbance of the test well, A0 the absorbance of the negative controls (without compound), and A total the absorbance of 100% hemolysis wells (with Triton X-100), when absorbance is read at 540 nm.
Toxicity studies of the compounds are carried out on freshly drawn human RBCs. Toxicity of the antimicrobial compounds of the present disclosure is defined by their HC50 values illustrated in Table 3, i.e. the concentration of compound at which 50% of the blood cells are lysed. Haemolytic studies conducted herein illustrates that the antimicrobial compounds provided by the instant disclosure are selective towards drug sensitive bacteria and drug resistant bacteria over human RBCs, thus establishing the non-toxicity of the present compounds.

Setting [5] is: concentration at which 50% of the blood cells are lysed, human RBCs.

For `CCCCCCCCN(Cc1ccccc1)C(=O)C(N)CCCCN.O=C(O)C(F)(F)F` (centres unmarked) [BCK-8, Lys-N-octyl-1-Aminomethylbenzene trifluoroacetates], the “Minimum Inhibitory Concentration E. coli” value in the data set with E. coli (MTCC 443) was 51 µg/mL. In the data set on S. aureus (MTCC 737), the “Minimum Inhibitory Concentration S. aureus” value turned out to be 46 µg/mL. Besides, the “Minimum Inhibitory Concentration VRE” value in data set [1] is >100 µg/mL. In data set [2], the “Minimum Inhibitory Concentration P. aeruginosa” value came out at 60 µg/mL. Further, the “Minimum Inhibitory Concentration K. pneumonia” value in data set [3] was >100 µg/mL. In data set [4], the “Minimum Inhibitory Concentration E. faecium” value was determined as 60 µg/mL. Besides, in the data set with MRSA (ATCC 33591), the “Minimum Inhibitory Concentration MRSA” value is >100 µg/mL. Moreover, in the data set with human RBCs (setting [5]), the HC50 amounted to 325 µg/mL.

In the case of `CCCCCCCCN(Cc1c2ccccc2c(Cl)c2ccccc12)C(=O)[C@@H](N)CCCCN.O=C(O)C(F)(F)F` [ACK-8, Lys-N-octyl-10-Aminomethyl-9-chloroanthracene trifluoroacetate], in the data set on E. coli (MTCC 443), the “MIC value against E. coli” value is ~2.9 µg/mL and the “Minimum Inhibitory Concentration E. coli” value came out at 2.9 µg/mL. Besides, in the data set with S. aureus (MTCC 737), the “MIC value against S. aureus” value is ~2.2 µg/mL and the “Minimum Inhibitory Concentration S. aureus” value is 2.2 µg/mL. In data set [1], the “MIC value against vancomycin-resistant E. faecium” value is ~3 µg/mL and the “Minimum Inhibitory Concentration VRE” value came to 3 µg/mL. In addition, in data set [2], the “MIC value against P. aeruginosa” value was ~3.8 µg/mL and the “Minimum Inhibitory Concentration P. aeruginosa” value stood at 3.8 µg/mL. In data set [3], the “MIC value against K. pneumonia” value is ~4.3 µg/mL and the “Minimum Inhibitory Concentration K. pneumonia” value was 4.3 µg/mL. Also, in data set [4], the “MIC value against E. faecium” value was ~2.5 µg/mL and the “Minimum Inhibitory Concentration E. faecium” value worked out at 2.5 µg/mL. In the data set on MRSA (ATCC 33591), the “MIC value against methicillin-resistant S. aureus” value is ~2.3 µg/mL and the “Minimum Inhibitory Concentration MRSA” value turned out to be 2.3 µg/mL. In addition, the HC50 in the data set on human RBCs (setting [5]) was determined as 64 µg/mL.

Turning to `CCCCCCN(Cc1ccc(-c2ccccc2)cc1)C(=O)[C@@H](N)CCCCN` [Compound 6b, Lys-N-hexyl-1-Aminomethylbiphenyl], the “Minimum Inhibitory Concentration S. aureus” value in the data set on S. aureus (MTCC 737) is 7.5 µg/mL.

As for `CCCCCCCCCCN(Cc1c2ccccc2c(Cl)c2ccccc12)C(=O)[C@@H](N)CCCCN.O=C(O)C(F)(F)F` [ACK-10, Lys-N-decyl-10-Aminomethyl-9-chloroanthracene trifluoroacetate], the “Minimum Inhibitory Concentration E. coli” value with E. coli (MTCC 443) was 26 µg/mL. Besides, in the data set with S. aureus (MTCC 737), the “MIC value against S. aureus” value is ~7.1 µg/mL and the “Minimum Inhibitory Concentration S. aureus” value was found to be 7.1 µg/mL. In data set [1], the “MIC value against vancomycin-resistant E. faecium” value was ~5.6 µg/mL and the “Minimum Inhibitory Concentration VRE” value is 5.6 µg/mL. In addition, the “Minimum Inhibitory Concentration P. aeruginosa” value in data set [2] was 11 µg/mL. Also, in data set [3], the “MIC value against K. pneumonia” value is ~7.6 µg/mL and the “Minimum Inhibitory Concentration K. pneumonia” value was 7.6 µg/mL. In addition, in data set [4], the “MIC value against E. faecium” value is ~4.9 µg/mL and the “Minimum Inhibitory Concentration E. faecium” value was 4.9 µg/mL. In the data set with MRSA (ATCC 33591), the “MIC value against methicillin-resistant S. aureus” value was ~4.6 µg/mL and the “Minimum Inhibitory Concentration MRSA” value stood at 4.6 µg/mL. The compound also yielded a concentration for 50% haemolysis (HC50) in the data set with human RBCs (setting [5]) of 71 µg/mL.

Turning to `CCCCCCCCN(Cc1c2ccccc2cc2ccccc12)C(=O)[C@@H](N)CCCCN.O=C(O)C(F)(F)F` [Compound 8c, Lys-N-octyl-9-Aminomethylanthracene trifluoroacetate], in the data set on S. aureus (MTCC 737), the “Minimum Inhibitory Concentration S. aureus” value came to 2.2 µg/mL. Also, the “Minimum Inhibitory Concentration MRSA” value with MRSA (ATCC 33591) was determined as 3.6 µg/mL. For the same compound, the concentration for 50% haemolysis (HC50) in the data set with human RBCs was determined as 42 µg/mL.

With `CCCCCCCCCCCCN(Cc1cccc2ccccc12)C(=O)[C@@H](N)CCCCN.O=C(O)C(F)(F)F` [NCK-12, Lys-N-dodecyl-1-Aminomethylnaphthalene trifluoroacetate], in the data set on E. coli (MTCC 443), the “MIC value against E. coli” value is ~3.1 µg/mL and the “Minimum Inhibitory Concentration E. coli” value came out at 3.1 µg/mL. For the same compound, in the data set with S. aureus (MTCC 737), the “MIC value against S. aureus” value is ~3 µg/mL and the “Minimum Inhibitory Concentration S. aureus” value came out at 3 µg/mL. Besides, in data set [1], the “MIC value against vancomycin-resistant E. faecium” value is ~3.4 µg/mL and the “Minimum Inhibitory Concentration VRE” value is 3.4 µg/mL. In data set [2], the “MIC value against P. aeruginosa” value is ~3.2 µg/mL and the “Minimum Inhibitory Concentration P. aeruginosa” value came to 3.2 µg/mL. Moreover, in data set [3], the “MIC value against K. pneumonia” value is ~4 µg/mL and the “Minimum Inhibitory Concentration K. pneumonia” value is 4 µg/mL. Besides, in data set [4], the “MIC value against E. faecium” value was ~1.6 µg/mL and the “Minimum Inhibitory Concentration E. faecium” value came out at 1.6 µg/mL. For the same compound, in the data set on MRSA (ATCC 33591), the “MIC value against methicillin-resistant S. aureus” value was ~2.7 µg/mL and the “Minimum Inhibitory Concentration MRSA” value amounted to 2.7 µg/mL. This compound registered an HC50 with human RBCs (setting [5]) of 56 µg/mL.

`CCCCN(Cc1ccc(-c2ccccc2)cc1)C(=O)[C@@H](N)CCCCN` [Compound 6a, Lys-N-Butyl-1-Aminomethylbiphenyl]: the “Minimum Inhibitory Concentration S. aureus” value in the data set with S. aureus (MTCC 737) came out at 60 µg/mL.

As for `CCCCCCCCN(Cc1ccc(-c2ccccc2)cc1)C(=O)C(N)CCCCN` (centres unmarked) [Compound 6c, Lys-N-octyl-1-Aminomethylbiphenyl], the “Minimum Inhibitory Concentration S. aureus” value in the data set on S. aureus (MTCC 737) was determined as 1.3 µg/mL.

On to `CCCCCCN(Cc1ccccc1)C(=O)[C@@H](N)CCCCN.O=C(O)C(F)(F)F` [BCK-6, Lys-N-hexyl-1-Aminomethylbenzene trifluoroacetate], for which the “Minimum Inhibitory Concentration E. coli” value with E. coli (MTCC 443) is >100 µg/mL. In addition, the “Minimum Inhibitory Concentration S. aureus” value in the data set with S. aureus (MTCC 737) is >100 µg/mL. The “Minimum Inhibitory Concentration P. aeruginosa” value in data set [2] was >100 µg/mL. Also, in data set [3], the “Minimum Inhibitory Concentration K. pneumonia” value was >100 µg/mL. Further, the “Minimum Inhibitory Concentration E. faecium” value in data set [4] was >100 µg/mL. For the same compound, the “Minimum Inhibitory Concentration MRSA” value in the data set with MRSA (ATCC 33591) was >100 µg/mL. In addition, the concentration for 50% haemolysis (HC50) in the data set on human RBCs was >1000 µg/mL.

Turning to `CCCCN(Cc1ccccc1)C(=O)[C@@H](N)CCCCN.O=C(O)C(F)(F)F` [BCK-4, Lys-N-butyl-1-Aminomethylbenzene trifluoroacetate], the “Minimum Inhibitory Concentration E. coli” value in the data set on E. coli (MTCC 443) is >100 µg/mL. Besides, the “Minimum Inhibitory Concentration S. aureus” value in the data set on S. aureus (MTCC 737) was >100 µg/mL. Further, in data set [2], the “Minimum Inhibitory Concentration P. aeruginosa” value was >100 µg/mL. Also, the “Minimum Inhibitory Concentration K. pneumonia” value in data set [3] was >100 µg/mL. The “Minimum Inhibitory Concentration E. faecium” value in data set [4] was >100 µg/mL. Besides, in the data set on MRSA (ATCC 33591), the “Minimum Inhibitory Concentration MRSA” value is >100 µg/mL. Moreover, the HC50 in the data set with human RBCs was >1000 µg/mL.

The term HC50 denotes the concentration that lyses half of the red blood cells. A higher HC50 goes with less damage to red cells.
